{
  "source": "patent EP0648759A1",
  "about": "“Antihistaminic compounds, process for their preparation and pharmaceutical compositions containing them” (ERREGIERRE S.p.A., priority 1993, dated 1995)",
  "key": {"H₁ receptor [1]": {"biological_target": "T1, H₁ receptor (Cavia porcellus, UniProt P31389)", "T1 construct": "A portion of terminal ileum was excised and immersed in a bath for isolated organ; from tissue; host or cells: guinea pig isolated terminal ileum", "T1 sequence (P31389 whole entry)": "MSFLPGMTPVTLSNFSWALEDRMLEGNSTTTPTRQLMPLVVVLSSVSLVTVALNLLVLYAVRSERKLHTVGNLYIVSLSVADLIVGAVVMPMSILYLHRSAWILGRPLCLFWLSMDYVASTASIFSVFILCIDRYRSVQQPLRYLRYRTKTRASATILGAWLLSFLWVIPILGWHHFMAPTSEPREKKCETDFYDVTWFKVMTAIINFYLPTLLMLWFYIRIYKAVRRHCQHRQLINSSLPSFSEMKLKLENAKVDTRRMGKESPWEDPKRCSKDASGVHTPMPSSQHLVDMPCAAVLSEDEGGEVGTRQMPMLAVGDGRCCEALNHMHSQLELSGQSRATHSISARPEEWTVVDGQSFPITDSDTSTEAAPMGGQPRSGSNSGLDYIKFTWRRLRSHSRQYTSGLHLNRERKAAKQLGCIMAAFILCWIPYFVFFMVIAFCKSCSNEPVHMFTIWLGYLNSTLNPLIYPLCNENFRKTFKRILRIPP", "assay": "Binding assay under saturation kinetics conditions (Scatchard)", "parameters": "species or system guinea pig", "conditions": "in the presence of TFZ 2 x 10⁻⁷ M", "procedure": "These assays (Scatchard) were carried out under the same incubation conditions and according to the conclusive test method described under paragraph 1a), with the exception that the radioligand concentration was changed according to a range of concentrations comprised between 0.3 and 10 nM, in the presence of a concentration of antagonist TFZ of 2 x 10⁻⁷ M."}, "H₁ receptor [2]": {"biological_target": "T1, H₁ receptor", "assay": "Functional activity on guinea pig isolated ileum, histamine-induced contractions", "type": "cell-based", "procedure": "(§1) The test was essentially meant to characterize the type of activity of the molecules under examination by checking their antagonist activity versus H₁ receptor. To this end, the guinea pig isolated ileum was used for two different tests: a) evaluation of the antagonist activity towards the agonist histamine; b) evaluation of the antagonist activity towards the agonist acetylcholine. Said tests were carried out to check the specificity and selectivity levels of the moleculas under examination.\n(§2) Male and female guinea pigs weighing approx. 250 g were used. A portion of terminal ileum was excised and immersed in a bath for isolated organ, in Tyrode solution, at 37°C. The antagonist activity was evaluated by determining the ability of the studied drug to modify the dose-effect curve built with increasing doses of agonist alone. Furthermore, in another series of experiments, increasing doses of the molecules under examination were tested in comparison with a submaximal dose of agonist.\nThe dose of histamine used was 6.8x10⁻⁸ M. The percentage of inhibition found after adding the tested drug to the bath for isolated organ versus the response obtained from the agonist alone was calculated. Six detections were carried out for each drug concentration. The results, calculated in terms of IC₅₀, corresponded to the drug concentrations responsible for a 50% reduction in the submaximal concentration of the agonist alone."}, "[3]": {"system": "muscarinic cholinergic receptor", "assay": "Functional activity on guinea pig isolated ileum, acetylcholine-induced contractions", "type": "cell-based", "conditions": "TFZ 5 x 10⁻⁷ M, dose corresponding to the IC₅₀ effective against histamine", "procedure": "as §1, §2\nWith a view to estimating the antagonist specificity level of the molecule TFZ under examination and taking into account the anticholinergic activity often associated with antihistaminic molecules, the capability of TFZ of antagonizing the acetylcholine (ACh) contraction effect on guinea pig isolated ileum was tested. […]"}},
  "data": [
    {"smiles": "CC(C)(c1ccc(C(O)CCCN2CCC(C(O)(c3ccccc3)c3ccccc3)CC2)cc1)c1nn[nH]n1", "note": "(racemic) [TFZ, p-1-hydroxy-4-(4-hydroxydiphenylmethyl-1-piperidinyl)-butyl-2-(1H-tetrazol-5-yl)-isopropyl benzene]", "values": [
      {"measurement": "Bmax (density of the binding sites)", "setting": "H₁ receptor [1]", "value": "no significant change"},
      {"measurement": "IC₅₀, inhibition of histamine-submaximal contraction", "setting": "H₁ receptor [2]; histamine 6.8 x 10⁻⁸ M, comparison in words, numbers only in Fig. 5", "value": "completely superimposable to that of MET I"},
      {"measurement": "agonist activity (contraction of the ileum smooth muscles)", "setting": "H₁ receptor [2]; increasing doses added to the bath perfusion liquid, no agonist", "value": "no agonist activity"},
      {"measurement": "type of antagonist activity towards histamine (Lineweaver-Burk)", "setting": "H₁ receptor [2]; three TFZ concentrations, Fig. 4", "value": "competitive antagonist activity"},
      {"measurement": "inhibitory activity against acetylcholine (ACh) contraction effect", "setting": "[3]", "value": "no inhibitory activity"}
    ]}
  ]
}
